Test results as given in patent US5843983A, “Diphenylethane compounds containing a saturated heterocyclic group, their preparation, and their therapeutic use” (Sankyo Company, Limited, priority 1996, dated 1998).
Where a name gives a salt, the structure may show the parent alone.

Tests used:
[1] = system: smooth muscle contraction; test: Vasoconstriction experiment (serotonin-induced contraction of tail artery helical strip); type: cell-based, Male SD rats; conditions: rat tail artery strip, 3×10^-6 M serotonin, Tyrode's solution, 37° C.; read-out: IC50 (concentration required to reduce the tension to 50%)
Experimental: Vasoconstriction experiment
Effects on smooth muscle contraction were examined by the method of Van Neuten et al. [J. Pharmacol. Exp. Ther., 218, 217-230, (1981)]. Male SD rats, each weighing approximately 500 g, were sacrificed by exsanguination, and the tail artery was excised from each animal. Adherent tissues were removed from the artery for preparation of a helical strip of dimensions about 2×20 mm. The strip was suspended in an organ bath kept at 37° C. and containing 10 ml of Tyrode's solution saturated with a mixed gas (95% O2 /5% CO2) and equilibrated for 1 hour before used in the experiment. An initial tension of 0.5 g was loaded on the helical strip, and changes in tension were recorded in an isometric manner via a transducer. 3×10^-6 M of serotonin was added to the bath as a vasoconstriction inducer, and, after stabilisation of the contractile response of the specimen, a test compound was added to the bath so as to increase the level of test compound in the bath progressively, whilst monitoring the tension in the helical strip. 10^-4 M of papaverine was then added. On the assumption that the tension before the addition of each test compound was 100% and that the tension 5 minutes after the addition of papaverine was 0%, the concentration of each test compound required to reduce the tension to 50% (IC50) was calculated from the least square regression line.

[2] = target: serotonin receptors; test: Receptor-binding experiment; set-up: species or system Male Wistar rats; conditions: rat cerebral cortex membrane, ^3 H-ligand, 30° C., 1 hour; read-out: IC50 (concentration required to inhibit the binding by 50%)
Experimental: Receptor-binding experiment
The method of Leysen et al. [Mol. Pharmacol., 21, 301-314, (1982)] was employed. Male Wistar rats (body weight 280-320 g) were used in this experiment. The head of each animal was severed, and the cerebral cortex and corpus striatum were excised. These organs were frozen on dry ice and stored at -80° C. until used. Binding to serotonin receptors was examined using the cerebral cortex. To prepare a membrane suspension, the frozen brain tissue was homogenised with 50 mM Tris-HCl buffer (pH 7.7) using Polytron PT-20, and the homogenate was centrifuged at 49,000×gfor 10 minutes. The resulting pellet was suspending in a Tris buffer, centrifuged, and resuspended in Tris buffer. The content of protein in the membrane suspension thus prepared was determined, and adjusted to 0.57 mg/protein/ml with Tris buffer. The membrane suspension was stored at -80° C.
The receptor-binding reaction was started by adding 440 μl of the membrane suspension to a test tube containing 50 μl of ^3 H-ligand and 10 μl of each test compound (dissolved in dimethyl sulfoxide). After incubation at 30° C. for 1 hour, the reaction was terminated by filtration under reduced pressure using a Whatman GF/B glass filter. The filter was washed with ice-cooled Tris buffer (4 ml×2 times). The filter was then treated with ACS-II, and its radioactivity was determined with a liquid scintillation counter. Non-specific binding was determined in the presence of 20 μM atropine. The percent inhibition of receptorbinding was determined from the percent binding in the presence of each test compound. The concentration of each test compound required to inhibit the binding by 50% (IC50) was calculated from the least square regression line.

[3] = target: T1, squalene synthase (Rattus norvegicus, UniProt Q02769); test: Squalene synthase inhibitory activity; type: biochemical; conditions: rat liver microsome, 10 μM [4-^14 C]-FPP, pH 7.5, 37° C., 20 minutes; read-out: IC50 (50% inhibitory concentration)
T1 construct: The reaction was started by the addition of rat liver microsome suspension; from tissue; host or cells: rat liver microsomes
T1 sequence (Q02769 1-416): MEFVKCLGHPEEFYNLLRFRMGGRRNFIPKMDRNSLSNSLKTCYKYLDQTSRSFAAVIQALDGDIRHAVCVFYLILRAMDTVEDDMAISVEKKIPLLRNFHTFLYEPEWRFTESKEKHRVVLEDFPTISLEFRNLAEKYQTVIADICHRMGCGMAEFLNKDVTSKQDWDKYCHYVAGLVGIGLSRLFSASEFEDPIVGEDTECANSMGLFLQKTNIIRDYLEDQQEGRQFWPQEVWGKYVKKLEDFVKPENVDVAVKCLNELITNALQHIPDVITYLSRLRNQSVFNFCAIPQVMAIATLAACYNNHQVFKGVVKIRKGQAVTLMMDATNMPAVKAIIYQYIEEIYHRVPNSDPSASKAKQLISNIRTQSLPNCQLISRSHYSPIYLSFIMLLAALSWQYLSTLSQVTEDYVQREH
Experimental: Squalene synthase inhibitory activity Squalene synthase inhibitory activity was determined by the method described in U.S. Pat. […] Anal. Biochem. 203, 310 (1992). […] The reaction was started by the addition of rat liver microsome suspension. The reaction solution was then incubated in a thermostat at 37° C. for 20 minutes, after which the reaction was terminated by the addition of 100 μl of a 1:1 by volume mixture of 40% KOH (aqueous potassium hydroxide) and 95% EtOH (aqueous ethanol). The reaction solution thus treated was further heated at 65° C. for 30 minutes, and then cooled. Squalene was extracted with 2 ml of hexane. One milliliter of the resulting hexane layer was mixed with 10 ml of scintillator, and radioactivity was determined using a liquid scintillation counter. The inhibitory activity of each test compound for the enzyme was determined by co-incubation of the sample containing the test compound with the enzyme sample and substrate in the reaction solution.

SMILES | IC50 [1] [nM] | IC50 [2] [nM] | IC50 [3] [nM]
COc1cccc(CCc2cc(F)ccc2OCC[C@@H]2C[C@@H](O)CN2C)c1 [Example 1, (2R,4R)-2-[2-{4-Fluoro-2-[2-(3-methoxyphenyl)ethyl]phenoxy}ethyl]-4-hydroxy-1-methylpyrrolidine hydrochloride] | 1.9 | 1 | 
O[C@H]1CN[C@H](CCOc2ccc(F)cc2CCc2ccccc2)C1 [Example 5, (2R,4R)-2-{2-[4-Fluoro-2-(2-phenylethyl)phenoxy]ethyl}-4-hydroxypyrrolidinehydrochloride] |  |  | 740
CN1C[C@H](O)C[C@H]1CCOc1ccc(F)cc1CCc1ccc(F)c(F)c1 [Example 7, (2R,4R)-2-[2-{2-[2-(3,4-Difluorophenyl)ethyl]-4-fluorophenoxy}ethyl]-4-hydroxy-1-methylpyrrolidine hydrochloride] | 2.6 | 0.75 | 
Cc1ccc(OCC[C@@H]2C[C@@H](O)CN2C)c(CCc2ccccc2)c1 [Example 12, (2R,4R)-4-Hydroxy-1-methyl-2-{2-[4-methyl-2-(2-phenylethyl)phenoxy]ethyl}pyrrolidine hydrochloride] |  |  | 1500

The remaining lines, values ahead:

IC50 [1] [nM] | IC50 [2] [nM] | IC50 [3] [nM] | SMILES
2 | 0.8 |  | CN1C[C@H](O)C[C@H]1CCOc1ccc(F)cc1CCc1ccc(F)cc1 [Example 2, (2R,4R)-2-[2-{4-Fluoro-2-[2-(4-fluorophenyl)ethyl]phenoxy}ethyl]-4-hydroxy-1-methylpyrrolidine hydrochloride]
2.3 | 0.65 | 1600 | COc1cc(CCc2cc(F)ccc2OCC[C@@H]2C[C@@H](O)CN2C)ccc1F [Example 4, (2R,4R)-2-[2-{4-Fluoro-2-[2-(4-fluoro-3-methoxyphenyl)ethyl]phenoxy}ethyl]-4-hydroxy-1-methylpyrrolidine hydrochloride]
2.2 | 3.4 | 1100 | CN1C[C@H](O)C[C@H]1CCOc1ccc(F)cc1CCc1ccccc1 [Example 6, (2R,4R)-2-{2-[4-Fluoro-2-(2-phenylethyl)phenoxy]ethyl}-4-hydroxy-1-methylpyrrolidine hydrochloride]
